Source: ChEMBL document CHEMBL3525956, “Species independence in brain tissue binding using brain homogenates” (Drug Metab Dispos, 2011)

Columns and labels:
[1] = Fraction unbound in human occipital cortex at 1 uM after 6 hrs by equilibrium dialysis method
[2] = Fraction unbound in Beagle dog brain homogenates at 1 uM after 6 hrs by equilibrium dialysis method; details: brain homogenate
[3] = Fraction unbound in Sprague-Dawley rat brain homogenates at 1 uM after 6 hrs by equilibrium dialysis method; details: brain homogenate
[4] = Fraction unbound in Wistar Han rat brain homogenates at 1 uM after 6 hrs by equilibrium dialysis method; details: brain homogenate
[5] = Fraction unbound in cynomolgus monkey brain homogenates at 1 uM after 6 hrs by equilibrium dialysis method; details: brain homogenate
[6] = Fraction unbound in Hartley guinea pig brain homogenates at 1 uM after 6 hrs by equilibrium dialysis method; details: brain homogenate
[7] = Fraction unbound in CD-1 mouse brain homogenates at 1 uM after 6 hrs by equilibrium dialysis method; details: brain homogenate

Row | SMILES | fraction unbound at 6 h, 1 µM [1] | fraction unbound at 6 h, 1 µM [2] | fraction unbound at 6 h, 1 µM [3] | fraction unbound at 6 h, 1 µM [4] | fraction unbound at 6 h, 1 µM [5] | fraction unbound at 6 h, 1 µM [6] | fraction unbound at 6 h, 1 µM [7]
1 | CCCc1nc2c(C)cc(-c3nc4ccccc4n3C)cc2n1Cc1ccc(-c2ccccc2C(=O)O)cc1 | 0.014 | 0.011 | 0.017 | 0.013 | 0.013 | 0.008 | 0.01
2 | NC12CC3CC(CC(C3)C1)C2 [AMANTADINE] | 0.171 | 0.218 | 0.147 | 0.213 | 0.1 | 0.178 | 0.181
3 | C[C@@H](O[C@H]1OCCN(Cc2n[nH]c(=O)[nH]2)[C@H]1c1ccc(F)cc1)c1cc(C(F)(F)F)cc(C(F)(F)F)c1 [APREPITANT] | 0.001 | 0.001 | 0.001 | 0.001 | 0.002 | 0.001 | 0.002
4 | O=C1CCc2ccc(OCCCCN3CCN(c4cccc(Cl)c4Cl)CC3)cc2N1 [ARIPIPRAZOLE] | 0.002 | 0.001 | 0.001 | 0.001 | 0.001 | 0.001 | 0.001
5 | CN1CCCC(n2nc(Cc3ccc(Cl)cc3)c3ccccc3c2=O)CC1 (configuration not stated) [AZELASTINE] |  | 0.011 | 0.009 | 0.012 | 0.014 | 0.009 | 0.012
6 | CC(C)C[C@H]1C(=O)N2CCC[C@H]2[C@]2(O)O[C@](NC(=O)[C@@H]3C=C4c5cccc6[nH]c(Br)c(c56)C[C@H]4N(C)C3)(C(C)C)C(=O)N12 [BROMOCRIPTINE] | 0.002 | 0.002 | 0.001 | 0.002 | 0.002 | 0.002 | 0.002
7 | CCCCN1CCCCC1C(=O)Nc1c(C)cccc1C (configuration not stated) [BUPIVACAINE] | 0.232 | 0.211 | 0.098 | 0.15 | 0.195 | 0.204 | 0.274
8 | CC(NC(C)(C)C)C(=O)c1cccc(Cl)c1 (configuration not stated) [BUPROPION] | 0.195 | 0.213 | 0.171 | 0.132 | 0.167 | 0.177 | 0.133
9 | NC(=O)N1c2ccccc2C=Cc2ccccc21 [CARBAMAZEPINE] | 0.171 | 0.159 | 0.124 | 0.171 | 0.185 | 0.128 | 0.173
10 | CN(C)CCCN1c2ccccc2Sc2ccc(Cl)cc21 [CHLORPROMAZINE] | 0.003 | 0.003 | 0.002 | 0.003 | 0.004 | 0.003 | 0.003
11 | CCCNC(=O)NS(=O)(=O)c1ccc(Cl)cc1 [CHLORPROPAMIDE] | 0.583 |  | 0.668 | 0.223 | 0.699 | 0.65 | 0.441
12 | CN(C)CCCC1(c2ccc(F)cc2)OCc2cc(C#N)ccc21 (configuration not stated) [CITALOPRAM] | 0.047 | 0.057 | 0.03 | 0.05 | 0.061 | 0.038 | 0.06
13 | NC1CCN(c2c(F)cc3c(=O)c(C(=O)O)cn(C4CC4)c3c2Cl)C1 (configuration not stated) [CLINAFLOXACIN] | 0.157 | 0.398 | 0.435 | 0.148 | 0.139 | 0.167 | 0.377
14 | CN(C)CCCN1c2ccccc2CCc2ccc(Cl)cc21 [CLOMIPRAMINE] | 0.004 | 0.004 | 0.003 | 0.004 | 0.006 | 0.003 | 0.004
15 | CNCCCN1c2ccccc2CCc2ccccc21 [DESIPRAMINE] | 0.011 | 0.017 | 0.008 | 0.013 | 0.012 | 0.007 | 0.011
16 | CCN(CC)C(=O)/C(C#N)=C/c1cc(O)c(O)c([N+](=O)[O-])c1 [ENTACAPONE] | 0.025 | 0.02 | 0.017 | 0.021 | 0.031 | 0.019 | 0.026
17 | CCCCCCCN(CC)CCCC(O)c1ccc(NS(C)(=O)=O)cc1 (configuration not stated) [IBUTILIDE] | 0.091 | 0.119 | 0.081 | 0.104 | 0.078 | 0.075 | 0.114
18 | COc1ccc2c(c1)c(CC(=O)O)c(C)n2C(=O)c1ccc(Cl)cc1 [INDOMETHACIN] | 0.055 | 0.035 | 0.028 | 0.044 | 0.053 | 0.044 | 0.052
19 | CCN(CC)CCNC(=O)c1cc(Cl)c(N)cc1OC [METOCLOPRAMIDE] | 0.295 | 0.294 | 0.145 | 0.224 | 0.413 | 0.237 | 0.23
20 | COC(=O)C1=C(C)NC(C)=C(C(=O)OCCN(C)Cc2ccccc2)C1c1cccc([N+](=O)[O-])c1 (configuration not stated) [NICARDIPINE] | 0.006 | 0.006 | 0.008 | 0.005 | 0.006 | 0.004 | 0.004
21 | COCCOC(=O)C1=C(C)NC(C)=C(C(=O)OC(C)C)C1c1cccc([N+](=O)[O-])c1 (configuration not stated) [NIMODIPINE] | 0.008 | 0.007 | 0.009 | 0.01 | 0.009 | 0.007 | 0.007
22 | CN1Cc2c(N)cccc2C(c2ccccc2)C1 (configuration not stated) [NOMIFENSINE] | 0.071 | 0.072 | 0.064 | 0.066 | 0.068 | 0.068 | 0.078
23 | CNCCC=C1c2ccccc2CCc2ccccc21 [NORTRIPTYLINE] | 0.006 | 0.007 | 0.005 | 0.007 | 0.009 | 0.006 | 0.008
24 | Cc1nc2n(c(=O)c1CCN1CCC(c3noc4cc(F)ccc34)CC1)CCCC2O (configuration not stated) [PALIPERIDONE] | 0.116 | 0.126 | 0.078 | 0.092 | 0.1 | 0.101 | 0.129
25 | Fc1ccc([C@@H]2CCNC[C@H]2COc2ccc3c(c2)OCO3)cc1 [PAROXETINE] | 0.005 | 0.004 | 0.006 | 0.004 | 0.006 | 0.003 | 0.004
26 | O=C1NC(=O)C(c2ccccc2)(c2ccccc2)N1 [PHENYTOIN] | 0.095 | 0.259 | 0.134 | 0.1 | 0.114 | 0.082 | 0.088
27 | CO[C@H]1/C=C/O[C@@]2(C)Oc3c(C)c(O)c4c(O)c(c(/C=N/N5CCN(C)CC5)c(O)c4c3C2=O)NC(=O)/C(C)=C\C=C\[C@H](C)[C@H](O)[C@@H](C)[C@@H](O)[C@@H](C)[C@H](OC(C)=O)[C@@H]1C [RIFAMPIN] | 0.119 | 0.259 | 0.068 | 0.121 | 0.162 | 0.118 | 0.121
28 | Cc1c(C(=O)NN2CCCCC2)nn(-c2ccc(Cl)cc2Cl)c1-c1ccc(Cl)cc1 [RIMONABANT] | 0.0005 | 0.0005 | 0.0006 | 0.0004 | 0.0006 | 0.0004 | 0.0004
29 | CCN(C)C(=O)Oc1cccc([C@H](C)N(C)C)c1 [RIVASTIGMINE] | 0.345 | 0.487 | 0.241 | 0.338 | 0.316 | 0.389 | 0.341
30 | CN[C@H]1CC[C@@H](c2ccc(Cl)c(Cl)c2)c2ccccc21 [SERTRALINE] | 0.001 |  |  |  |  |  | 
